Experimental data taken from US9487553B2, “Boranophosphate analogues of cyclic nucleotides” (BIOLOG LIFE SCIENCE INSTITUTE FORSCHUNGSLABOR UND …, priority 2011, dated 2016).

Assays:
[1] = test system: PDE type I from bovine brain; assay: Resistance towards phosphodiesterase: incubation with PDE type I from bovine brain, HPLC
Description: Activity of the enzyme was checked by hydrolysis of cyclic AMP. Stability was monitored by HPLC (RP-18, 11 Vol.-% propanol-2, 20 mM TEAF buffer, pH 6.8, 1 ml/min., UV 264 nm).

[2] = molecular target: protein kinase A type I alpha holoenzyme (Homo sapiens, UniProt P10644); assay: Standard photometric (Cook) assay with protein kinase A type I alpha holoenzyme; type: biochemical; conditions: holoenzyme RIα
Description: In a first experiment, the biological activity of the Rp- and Sp-isomer of 8-bromoadenosine-3′,5′-cyclic boranophosphate (examples 1 and 2) has been tested with the holoenzyme of protein kinase A type I alpha (FIGS. 3 and 4) using a standard photometric assay (Cook, P. F.; Neville, M. E., Jr.; Vrana, K. E.; Hartl, F. T. and Roskoski, R., Jr., Biochemistry 21, 5794-5799 (1982)).
As a control, two boranophosphate analogues with a 2′-O-methyl modification (Rp-2′-O-Me-cAMPB and Sp-2′-O-Me-cAMPB, examples 7 & 8) have been tested by the same type of assay with protein kinase A type I alpha as well.
FIG. 5 depicts the activity overview of four different cyclic boranophosphate analogues with protein kinase A type I alpha holoenzyme. 9108: Sp-2′-O-Me-cAMPB; 9109: Rp-2′-O-Me-cAMPB; 9110: Sp-8-Br-cAMPB; 9111: Rp-8-Br-cAMPB; controls: B 001: Rp-8-Br-cAMPS. Control: cAMP. “Cook Assay” with Holoenzyme RIα.

bovine CNGA2 channels = molecular target: T1, bovine CNGA2 channels (Bos taurus, UniProt Q03041); assay: Patch-clamp of inside-out oocyte membrane patches with olfactory CNGA2 channels; type: cell-based; conditions: for current amplitude, % of the amplitude observed in the absence of the compound: 50 μM cAMP, 50 μM compound, n=9; for inhibition of channel activation by cAMP: applied in the presence of cAMP; for current, % of its maximal value: 500 μM compound, maximal value at 500 μM cAMP, n=3
T1 construct: expressed in transfected cells; host or cells: Xenopus laevis oocytes (cRNA injection; inside-out membrane patches)
T1 sequence (Q03041 1-663): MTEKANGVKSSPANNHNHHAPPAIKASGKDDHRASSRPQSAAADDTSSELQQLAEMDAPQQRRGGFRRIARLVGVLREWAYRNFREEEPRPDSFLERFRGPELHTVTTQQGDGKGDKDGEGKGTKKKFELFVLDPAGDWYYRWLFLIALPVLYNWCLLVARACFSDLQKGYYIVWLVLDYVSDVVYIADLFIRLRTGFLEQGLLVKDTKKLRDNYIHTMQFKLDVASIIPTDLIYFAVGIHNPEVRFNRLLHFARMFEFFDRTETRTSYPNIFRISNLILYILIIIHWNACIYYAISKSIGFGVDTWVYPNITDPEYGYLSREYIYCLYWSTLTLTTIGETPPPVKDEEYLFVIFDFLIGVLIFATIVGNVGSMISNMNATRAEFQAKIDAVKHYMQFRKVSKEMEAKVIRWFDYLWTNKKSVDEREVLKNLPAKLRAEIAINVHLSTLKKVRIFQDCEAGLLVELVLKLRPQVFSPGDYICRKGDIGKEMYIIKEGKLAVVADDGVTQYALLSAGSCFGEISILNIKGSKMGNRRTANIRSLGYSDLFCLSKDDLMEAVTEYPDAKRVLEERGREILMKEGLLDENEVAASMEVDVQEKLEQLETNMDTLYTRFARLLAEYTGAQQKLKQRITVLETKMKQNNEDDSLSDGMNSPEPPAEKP
Description: Next, the effects of cyclic nucleotide boranophosphates, disclosed in this invention, on olfactory cyclic nucleotide-gated ion channels in clamps of oocyte cell membrane patches were investigated.
For the experiments, oocytes were obtained and prepared as described previously (Biskup, C. et al., Nature 446, 440-443 (2007)). In brief, oocytes were obtained by partial ovariectomy from adult females of Xenopus laevis anaesthesized with 0.3% 3-aminobenzoic acid ethyl ester (Sigma). The oocytes were treated for 60-90 min with 1.2 mg/ml collagenase (Type I, Sigma) and separated manually. 40-70 nl of a solution containing cRNA encoding bovine CNGA2 channels (accession No. X55010) was injected, and the oocytes were incubated at 18° C. in Barth medium until they were used for the experiments within 3-6 days after injection. Immediately prior to the experiments the vitelline membrane of the oocytes was removed.
Currents were recorded in inside-out patches with the patch-clamp technique. The patch pipettes were pulled from quartz tubing (outer diameter 1.0 mm, inner diameter 0.7 mm) using a laser puller (P-2000, Sutter Instrument, Novato, Calif.). The pipette resistance was 0.8-2.5 MΩ. Recording was performed with an Axopatch 200B amplifier (Molecular Devices, Sunnyvale, Calif.). All experiments were performed with the same recording solution in the bath and the pipette containing (in mM) 150 KCl, 1 EGTA, 5 HEPES. pH was adjusted to 7.4 with KOH.
Measurements were controlled and data were collected with the ISO3 setup (MFK, Niedernhausen, Germany). The sampling rate was 5 kHz (filter 2 kHz). To test for possible background channel activity, each excised patch was first exposed to a solution containing no cyclic nucleotides.
FIGS. 15 A-C depict the agonistic activity of Rp-8-Br-cAMPB on CNGA2 channels. Currents were recorded in a patch containing CNGA2 channels. The patch membrane was clamped subsequently from 0 mV to −50 mV, +50 mV and back to 0 mV. […] (C) Current measured in the presence of 500 μM Rp-8-Br-cAMPB.
FIGS. 16 A-F depict the antagonistic activity of Sp-8-Br-cAMPB on CNGA2 channels. Currents were recorded in a patch containing CNGA2 channels. The patch membrane was clamped subsequently from 0 mV to −50 mV, +50 mV and back to 0 mV.

PDE 1 from bovine heart = assay: Resistance towards phosphodiesterase: incubation with PDE 1 from bovine heart, HPLC
Description: For this purpose 0.1 μmol of Rp-8-bromoadenosine-3′,5′-cyclic boranophosphate (example 1) and Sp-8-bromoadenosine-3′,5′-cyclic boranophosphate […] dissolved in TRIS buffer pH 7.2 containing calcium chloride and calmodulin and incubated with PDE type I from bovine brain (Sigma-Aldrich) at 37° C. Activity of the enzyme was checked by hydrolysis of cyclic AMP. Stability was monitored by HPLC (RP-18, 11 Vol.-% propanol-2, 20 mM TEAF buffer, pH 6.8, 1 ml/min., UV 264 nm). […] This strategy of testing PDE performance was applied accordingly in degradation examples 10 and 11.
Thus, Rp-8-Br-cAMPB (example 1) and Sp-8-Br-cAMPS (Biolog, Bremen/Germany) were incubated with PDE 1 from bovine heart (Sigma-Aldrich) and monitored by HPLC as described above.
Rp-2′-O-Me-cAMPB (example 7) and Sp-2′-O-Me-cAMPS (Biolog, Bremen/Germany).

PDE IV (A4B) = molecular target: T2, PDE IV (A4B) (Homo sapiens, UniProt P27815); assay: Stability against PDE IV, HPLC; type: in vitro ADME; conditions: several days
T2 construct: Houslay lab, Glasgow/Scotland (obtained from another laboratory)
Description: Next, stability of the disclosed boranophosphates against PDE IV (A4B, Houslay lab, Glasgow/Scotland) was tested in similar experiments as described above.

Sequence of protein kinase A type I alpha holoenzyme (P10644 whole entry): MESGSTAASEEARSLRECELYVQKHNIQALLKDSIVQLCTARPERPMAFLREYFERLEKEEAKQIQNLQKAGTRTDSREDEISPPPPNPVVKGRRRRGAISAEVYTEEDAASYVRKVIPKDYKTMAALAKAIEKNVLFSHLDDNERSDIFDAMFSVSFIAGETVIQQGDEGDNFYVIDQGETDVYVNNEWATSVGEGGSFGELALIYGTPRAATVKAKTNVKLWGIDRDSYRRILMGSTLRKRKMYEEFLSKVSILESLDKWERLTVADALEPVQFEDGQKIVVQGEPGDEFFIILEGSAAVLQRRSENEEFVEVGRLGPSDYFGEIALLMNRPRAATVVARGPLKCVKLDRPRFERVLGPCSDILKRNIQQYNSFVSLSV
T2 sequence (P27815 whole entry): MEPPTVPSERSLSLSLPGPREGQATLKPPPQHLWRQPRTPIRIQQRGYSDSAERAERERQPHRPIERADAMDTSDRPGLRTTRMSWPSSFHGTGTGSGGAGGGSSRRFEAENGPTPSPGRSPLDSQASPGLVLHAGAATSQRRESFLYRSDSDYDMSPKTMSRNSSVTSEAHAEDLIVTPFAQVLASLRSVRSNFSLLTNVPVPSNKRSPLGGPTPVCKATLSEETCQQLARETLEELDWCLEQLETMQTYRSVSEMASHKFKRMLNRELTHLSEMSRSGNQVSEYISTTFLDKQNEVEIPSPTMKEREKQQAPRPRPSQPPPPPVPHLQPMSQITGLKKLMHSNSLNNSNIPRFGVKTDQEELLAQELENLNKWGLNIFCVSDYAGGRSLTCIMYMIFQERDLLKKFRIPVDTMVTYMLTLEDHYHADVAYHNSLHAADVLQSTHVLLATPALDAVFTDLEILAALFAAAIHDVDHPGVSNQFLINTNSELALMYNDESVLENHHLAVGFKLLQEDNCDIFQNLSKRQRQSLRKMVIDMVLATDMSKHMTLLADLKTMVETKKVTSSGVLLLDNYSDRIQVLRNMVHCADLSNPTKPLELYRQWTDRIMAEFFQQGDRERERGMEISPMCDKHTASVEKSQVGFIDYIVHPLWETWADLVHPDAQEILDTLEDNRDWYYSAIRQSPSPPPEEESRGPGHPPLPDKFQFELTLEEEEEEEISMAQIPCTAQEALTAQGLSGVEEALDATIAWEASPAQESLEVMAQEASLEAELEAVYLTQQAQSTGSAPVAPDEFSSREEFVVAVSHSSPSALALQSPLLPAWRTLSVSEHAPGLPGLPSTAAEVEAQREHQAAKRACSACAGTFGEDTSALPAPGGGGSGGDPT

| Substance | degradation by PDE [1] | effect on protein kinase A type I alpha holoenzyme [2] | current amplitude, % of the amplitude observed in the absence of the compound (bovine CNGA2 channels; +50 mV) [%] | current amplitude, % of the amplitude observed in the absence of the compound (bovine CNGA2 channels; −50 mV) [%] | inhibition of channel activation by cAMP (bovine CNGA2 channels) | intrinsic activity on CNGA2 channels (bovine CNGA2 channels; up to 100 μM, absence of cAMP) | degradation by PDE (PDE 1 from bovine heart) | stability against PDE IV (PDE IV (A4B)) | current, % of its maximal value (bovine CNGA2 channels; +50 mV) [%] | current, % of its maximal value (bovine CNGA2 channels; −50 mV, mean±SEM) [%] |
| --- | --- | --- | --- | --- | --- | --- | --- | --- | --- | --- |
| 8-Bromoadenosine-3′,5′-cyclic boranophosphate, Sp-isomer [Sp-8-Br-cAMPB] | no degradation was detected | inhibitory potential | 48±11 | 34±9 | competitive antagonist | did not show any intrinsic activity | – | – | – | – |
| 8-Bromoadenosine-3′,5′-cyclic boranophosphate, Rp-isomer [Rp-8-Br-cAMPB] | – | agonistic property | – | – | does not inhibit channel activation by cAMP | – | completely stable | completely stable | 14±4 | 7±1 |
